From US9346815B2, “5-chloro-2-difluoromethoxyphenyl pyrazolopyrimidine compounds, compositions and methods of use thereof” (Genentech, Inc., priority 2014, dated 2016)

Assays:
[1] = biological target: isolated recombinant JAK1 kinase domain (Homo sapiens (Human), UniProt P23458); experiment: JAK1 enzyme assay (Caliper LabChip, peptide phosphorylation); assay type: biochemical; conditions: isolated recombinant JAK1 kinase domain, 25 μM ATP
[2] = system: JAK1-dependent STAT6 phosphorylation downstream of IL-13 stimulation in TF-1 human erythroleukemia cells; experiment: JAK1 pathway assay in TF-1 cells (IL-13-pSTAT6, MSD); assay type: cell-based; conditions: Homo sapiens, TF-1, TF-1 cells, read-out: IL13-pSTAT6 EC50_TF-1
Method in brief: (§1)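 BEAS-2B: complete growth medium, compound 1 hr at 37° C. TF-1: GM-CSF-starved overnight, serum-free OptiMEM, compound 30 min.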

[3] = system: JAK1-dependent STAT6 phosphorylation downstream of IL-13 stimulation in BEAS-2B human bronchial epithelial cells; experiment: JAK1 pathway assay in BEAS-2B cells (IL-13-pSTAT6, MSD); assay type: cell-based; conditions: read-out: IL13-pSTAT6 EC50 (uM)_BEAS-2B
Method in brief: as §1

[4] = Clearance assay: mouse intravenous (IV) clearance; assay type: in vivo; conditions: female BALB/c mice; for IV Mouse CL, % of liver blood flow: clearance as % of mouse liver blood flow; for clearance: mouse, read-out: IV Mouse CL
Excerpt: In certain instances high systemic clearance of a drug substance may be of benefit. For example, in the treatment of pulmonary diseases it may be beneficial to have high drug concentrations in the lung, with lower concentrations in the bloodstream or peripheral organs. In such cases, it may be advantageous to administer a drug substance with high systemic clearance via the inhaled delivery route. This approach may maximize pharmacologic activity of the drug substance in the lung while minimizing the possibility of on-target toxicity elsewhere in the body. The functional groups appended to the 5-chloro-2-difluoromethoxyphenyl pyrazolopyrimidine scaffold affect systemic clearance.
Female BALB/c mice were obtained from Charles River Labs (Hollister, Calif. USA). Twelve animals were given a single IV dose of 1 mg/kg of compounds via the tail vein. A representative dose solution was prepared as follows: the compound was dissolved in a mixture of 5% dimethylsulfoxide (DMSO), 35% polyethylene glycol (PEG 400), and 60% water (v/v/v), respectively, and administered at a dosing volume of 5 mL/kg. Mice weighed approximately 20-25 g at the start of the study. After intravenous administration of compounds, each animal was bled twice via retro-orbital and cardiac puncture. PK time points were collected at 2 min, 5 min, 15 min, 30 min, 1 hr, 2 hr, 4 hr, and 8 hr post-dose. Plasma samples were stored at approximately −80° C. until thawed for LC-MS/MS analysis. PK data analysis was performed on mean plasma concentration-time data and PK parameters were determined by non compartmental methods using WinNonlin® Enterprise, version 5.2.1 (Pharsight Corporation; Mountain View, Calif.).

[5] = biological target: isolated recombinant JAK2 kinase domain (Homo sapiens (Human), UniProt O60674); experiment: JAK2 enzyme assay (Caliper LabChip, peptide phosphorylation); assay type: biochemical; conditions: 25 μM ATP
Sequence of isolated recombinant JAK2 kinase domain (O60674 849-1124): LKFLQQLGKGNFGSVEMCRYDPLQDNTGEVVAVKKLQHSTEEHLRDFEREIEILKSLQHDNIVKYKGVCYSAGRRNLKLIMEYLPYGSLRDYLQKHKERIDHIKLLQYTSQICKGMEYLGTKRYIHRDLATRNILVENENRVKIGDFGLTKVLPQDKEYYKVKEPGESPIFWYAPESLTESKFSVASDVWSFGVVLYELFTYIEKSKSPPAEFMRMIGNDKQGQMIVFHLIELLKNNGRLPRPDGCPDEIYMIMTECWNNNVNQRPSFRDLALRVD

[6] = plasma, single IV dose of 1 mg/kg via the tail vein

Sequence of isolated recombinant JAK1 kinase domain (P23458 875-1153): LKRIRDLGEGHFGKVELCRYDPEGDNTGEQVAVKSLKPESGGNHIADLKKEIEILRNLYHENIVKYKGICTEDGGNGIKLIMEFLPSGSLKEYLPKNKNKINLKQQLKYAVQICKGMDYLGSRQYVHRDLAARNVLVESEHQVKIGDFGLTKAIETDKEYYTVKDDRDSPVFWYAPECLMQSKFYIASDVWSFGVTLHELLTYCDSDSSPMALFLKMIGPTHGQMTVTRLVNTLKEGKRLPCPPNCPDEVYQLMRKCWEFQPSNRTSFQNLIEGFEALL

Row | Structure (SMILES) | Ki [1] [nM] | EC50 [2] [nM] | IV Mouse CL, % of liver blood flow ([4]; single IV dose of 1 mg/kg) [%] | clearance [4, 6] [mL/min/kg] | Ki [5] [nM] | mouse IV clearance as % of mouse liver blood flow ([4]; single IV dose of 1 mg/kg) [%] | mouse intravenous (IV) clearance value ([4]; single IV dose of 1 mg/kg via the tail vein, plasma) [mL/min/kg] | EC50 [3] [µM]
1 | O=C(Nc1cn(CC(=O)N2CCC(CN3CCOCC3)CC2)nc1-c1cc(Cl)ccc1OC(F)F)c1cnn2cccnc12 [Example 348, N-[3-[5-chloro-2-(difluoromethoxy)phenyl]-1-[2-[4-(morpholin-4-ylmethyl)piperidin-1-yl]-2-oxoethyl]-1H-pyrazol-4-yl]pyrazolo[1,5-a]pyrimidine-3-carboxamide] | 0.4 |  | >100 | 143 | 1.02 |  |  | 0.012
2 | CC(C)(O)Cn1cc(NC(=O)c2cnn3cccnc23)c(-c2cc(Cl)ccc2OC(F)F)n1 [i] |  |  |  |  |  | 6 | 5.3 | 
3 | CN(C)CC#Cc1nc(-c2cc(Cl)ccc2OC(F)F)c(NC(=O)c2cnn3cccnc23)s1 [Example 209, Pyrazolo[1,5-a]pyrimidine-3-carboxylic acid [4-(5-chloro-2-difluoromethoxy-phenyl)-2-(3-dimethylamino-prop-1-ynyl)-thiazol-5-yl]-amide] | 0.78 | 7.4 | 71 | 64 | 0.28 |  |  | 0.0415
4 | CN(CC(F)(F)F)C1CCN(c2nc(-c3cc(Cl)ccc3OC(F)F)c(NC(=O)c3cnn4cccnc34)s2)CC1 [Example 198, N-[4-[5-chloro-2-(difluoromethoxy)phenyl]-2-[4-[methyl(2,2,2-trifluoroethyl)amino]-1-piperidyl]thiazol-5-yl]pyrazolo[1,5-a]pyrimidine-3-carboxamide] | 2.72 | 29.1 | >100 | 326 | 2.17 |  |  | 
5 | CCOC(=O)CN1CCN(C(=O)Cn2cc(NC(=O)c3cnn4cccnc34)c(-c3cc(Cl)ccc3OC(F)F)n2)CC1 [Example 397, ethyl 2-[4-(2-[3-[5-chloro-2-(difluoromethoxy)phenyl]-4-[pyrazolo[1,5-a]pyrimidine-3-amido]-1H-pyrazol-1-yl]acetyl)piperazin-1-yl]acetate] |  |  | >100 | 141 | 0.77 |  |  | 0.027
6 | COCCNCCn1cc(NC(=O)c2cnn3cccnc23)c(-c2cc(Cl)ccc2OC(F)F)n1 [Example 294, N-[3-[5-chloro-2-(difluoromethoxy)phenyl]-1-[2-(2-methoxyethylamino)ethyl]pyrazol-4-yl]pyrazolo[1,5-a]pyrimidine-3-carboxamide] | 0.89 | 6.2 | >100 | 95 | 0.57 |  |  | 0.0367
7 | O=C(Nc1cn(CCNCc2ccccc2)nc1-c1cc(Cl)ccc1OC(F)F)c1cnn2cccnc12 [Example 313, N-[1-[2-(benzylamino)ethyl]-3-[5-chloro-2-(difluoromethoxy)phenyl]-1H-pyrazol-4-yl]pyrazolo[1,5-a]pyrimidine-3-carboxamide] | 0.21 |  | 57 | 51 | 0.21 |  |  | 0.0218

Now from value to molecule, other results behind:

Row | Ki [1] [nM] | EC50 [2] [nM] | IV Mouse CL, % of liver blood flow ([4]; single IV dose of 1 mg/kg) [%] | clearance [4, 6] [mL/min/kg] | Ki [5] [nM] | mouse IV clearance as % of mouse liver blood flow ([4]; single IV dose of 1 mg/kg) [%] | mouse intravenous (IV) clearance value ([4]; single IV dose of 1 mg/kg via the tail vein, plasma) [mL/min/kg] | Structure (SMILES) | EC50 [3] [µM]
8 | 0.89 | 14.6 | >100 | 205 |  |  |  | CN(C)C1CCN(C(=O)Cn2cc(NC(=O)c3cnn4cccnc34)c(-c3cc(Cl)ccc3OC(F)F)n2)CC1 [Example 67, N-[3-[5-chloro-2-(difluoromethoxy)phenyl]-1-[2-[4-(dimethylamino)-1-piperidyl]-2-oxo-ethyl]pyrazol-4-yl]pyrazolo[1,5-a]pyrimidine-3-carboxamide] | 0.0715
9 | 0.4 | 1.7 | >100 | 234 | 0.76 |  |  | CN(CC(F)(F)F)C1CCN(C(=O)Cn2cc(NC(=O)c3cnn4cccnc34)c(-c3cc(Cl)ccc3OC(F)F)n2)CC1 [Example 99, N-[3-[5-chloro-2-(difluoromethoxy)phenyl]-1-[2-[4-[methyl(2,2,2-trifluoroethyl)amino]-1-piperidyl]-2-oxo-ethyl]pyrazol-4-yl]pyrazolo[1,5-a]pyrimidine-3-carboxamide] | 0.0305
10 | 0.5 | 3.7 | 43 | 39 | 0.8 |  |  | O=C(Nc1cn(CC(=O)N2C[C@H]3CN(CC(F)(F)F)C[C@H]3C2)nc1-c1cc(Cl)ccc1OC(F)F)c1cnn2cccnc12 [Example 59, N-[1-[2-[(3aR,6aS)-2-(2,2,2-trifluoroethyl)-1,3,3a,4,6,6a-hexahydropyrrolo[3,4-c]pyrrol-5-yl]-2-oxo-ethyl]-3-[5-chloro-2-(difluoromethoxy)phenyl]pyrazol-4-yl]pyrazolo[1,5-a]pyrimidine-3-carboxamide] | 
11 | 0.36 |  | >100 | 140 | 0.92 |  |  | N#CC1(CNC2CCN(C(=O)Cn3cc(NC(=O)c4cnn5cccnc45)c(-c4cc(Cl)ccc4OC(F)F)n3)CC2)CC1 [Example 468, N-(3-(5-chloro-2-(difluoromethoxy)phenyl)-1-(2-(4-(((1-cyanocyclopropyl)methyl)amino)piperidin-1-yl)-2-oxoethyl)-1H-pyrazol-4-yl)pyrazolo[1,5-a]pyrimidine-3-carboxamide] | 0.006
12 | 0.86 | 15.3 | 61 | 55 | 1.66 |  |  | CN(CCc1ccccc1)C1CCN(C(=O)Cn2cc(NC(=O)c3cnn4cccnc34)c(-c3cc(Cl)ccc3OC(F)F)n2)CC1 [Example 85, N-[3-[5-chloro-2-(difluoromethoxy)phenyl]-1-[2-[4-[methyl(2-phenylethyl)amino]-1-piperidyl]-2-oxo-ethyl]pyrazol-4-yl]pyrazolo[1,5-a]pyrimidine-3-carboxamide] | 0.1
13 | 0.33 | 2.3 | >100 | 222 | 0.69 |  |  | CN(CC(C)(F)F)C1CCN(C(=O)Cn2cc(NC(=O)c3cnn4cccnc34)c(-c3cc(Cl)ccc3OC(F)F)n2)CC1 [Example 134, N-[3-[5-chloro-2-(difluoromethoxy)phenyl]-1-[2-[4-[2,2-difluoropropyl(methyl)amino]-1-piperidyl]-2-oxo-ethyl]pyrazol-4-yl]pyrazolo[1,5-a]pyrimidine-3-carboxamide] | 0.0118
14 | 0.36 |  | >100 | > 200 | 1.16 |  |  | CN(C)CCOC(=O)C1CCN(C(=O)Cn2cc(NC(=O)c3cnn4cccnc34)c(-c3cc(Cl)ccc3OC(F)F)n2)CC1 [Example 338, 2-(dimethylamino)ethyl 1-(2-[3-[5-chloro-2-(difluoromethoxy)phenyl]-4-[pyrazolo[1,5-a]pyrimidine-3-amido]-1H-pyrazol-1-yl]acetyl)piperidine-4-carboxylate] | 0.0177
15 | 0.25 |  | >100 | 93 | 0.51 |  |  | CSCCN1CCN(C(=O)Cn2cc(NC(=O)c3cnn4cccnc34)c(-c3cc(Cl)ccc3OC(F)F)n2)CC1 [Example 372, N-[3-[5-chloro-2-(difluoromethoxy)phenyl]-1-(2-[4-[2-(methylsulfanyl)ethyl]piperazin-1-yl]-2-oxoethyl)-1H-pyrazol-4-yl]pyrazolo[1,5-a]pyrimidine-3-carboxamide] | 0.0197
16 | 0.27 |  | 80 | 72 | 0.74 |  |  | CC(C)(C#N)CNC1CCN(C(=O)Cn2cc(NC(=O)c3cnn4cccnc34)c(-c3cc(Cl)ccc3OC(F)F)n2)CC1 [Example 466, N-(3-(5-chloro-2-(difluoromethoxy)phenyl)-1-(2-(4-(2-cyano-2-methyl-propylamino)piperidin-1-yl)-2-oxoethyl)-1H-pyrazol-4-yl)pyrazolo[1,5-a]pyrimidine-3-carboxamide] | 0.014
17 | 0.24 |  | >100 | 133 | 0.63 |  |  | O=C(Nc1cn(CC(=O)N2CCC(O)CC2)nc1-c1cc(Cl)ccc1OC(F)F)c1cnn2cccnc12 [Example 278, N-[3-[5-chloro-2-(difluoromethoxy)phenyl]-1-[2-(4-hydroxy-1-piperidyl)-2-oxo-ethyl]pyrazol-4-yl]pyrazolo[1,5-a]pyrimidine-3-carboxamide] | 0.005
